Results from US10517889B2, “Modulators of SMAD7 expression” (Ionis Pharmaceuticals, Inc., priority 2017, dated 2019).
pIC50: −log10 of the molar value.

Legend:
murine Smad7 mRNA = test: Dose-dependent inhibition of murine Smad7 mRNA in bEND cells, electroporation (Example 5, Study 2); type: cell-based, mouse; details: electroporation; for % inhibition of SMAD7 mRNA expression: approximately 16 hours
In short: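 Mouse bEND cells electroporated with oligonucleotide at several doses and treated for approximately 16 hours. Smad7 mRNA quantified by real-time RT-PCR (primer probe set RTS1114), normalised to total RNA by RiboGreen. Reported as percent inhibition relative to untreated cells.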

[1] = Body and organ weights after subcutaneous administration in beagle dogs (Example 8); type: in vivo; details: 30 mg/kg subcutaneous days 1, 3, 5, 8, 15, 22, 29, end of study
Procedure: (§1) There were 4 animals per group.
Body weights as well as kidney, spleen, liver (with gall bladder), mesenteric lymph node, heart, and thymus weights were measured at the end of the study. […] Ionis SMAD7 oligonucleotides that caused any changes in organ weights outside the expected range for antisense oligonucleotides were excluded from further studies.

human SMAD7 mRNA = test: Antisense inhibition of human SMAD7 mRNA expression in Hep3B cells by 3-10-3 cEt gapmers, 10,000 nM, electroporation (Example 2); type: cell-based; details: approximately 24 hours
In short: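 Hep3B, 20,000 cells/well; electroporation, 10,000 nM ASO; ~24 h. Readout: SMAD7 mRNA by qRT-PCR (RTS5062), RIBOGREEN-normalised; % inhibition vs untreated.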

[2] = Plasma chemistry markers after subcutaneous administration in beagle dogs (Example 8); details: 30 mg/kg subcutaneous days 1, 3, 5, 8, 15, 22, 29, plasma at day 31
Procedure: Groups of 24-25 week old male beagle dogs were injected subcutaneously with 30 mg/kg ION Ionis oligonucleotide. There were 4 animals per group. Dogs were injected every two days for the first week (day 1, 3, and 5) and once weekly thereafter (days 8, 15, 22, and 29). A control group of dogs received subcutaneous injections of PBS. Dogs were sacrificed on day 31 approximately 48 hours after the final dose and organs and plasma were harvested for further analysis.
To evaluate the effect of Ionis SMAD7 oligonucleotides on liver and kidney function, plasma levels of transaminases, albumin, creatine and BUN were measured using an automated clinical chemistry analyzer (Toshiba 200FR Neo chemistry analyzer, Toshiba Co., Japan).

mouse Smad7 mRNA = test: Pharmacology: mouse Smad7 mRNA expression in liver, kidney, duodenum, ileum and colon after subcutaneous administration in CD-1 mice (Example 6); type: in vivo; details: 50 mg/kg subcutaneous twice weekly for 7 weeks, normalized to GAPDH
Procedure: Groups of 8-9 week old male CD-1 mice were injected subcutaneously twice a week for 7 weeks with 50 mg/kg of Ionis oligonucleotides (100 mg/kg/week dose). Each group contained 4 mice. One group of male CD-1 mice was injected subcutaneously twice a week for 7 weeks with PBS. Plasma was collected for analysis on day 28.
The pharmacological activity of the Ionis oligonucleotides in mice was assessed by measuring mouse Smad7 mRNA expression in liver, kidney, duodenum, ileum, and colon at necropsy.
Tissue samples from all mice were analyzed for Smad7 mRNA expression using the primer probe set HTS7555 (forward sequence […], designated SEQ ID NO: 2737; reverse sequence […], designated SEQ ID NO: 2738; probe sequence […], designated SEQ ID NO: 2739), which was normalized to mRNA levels of the housekeeping gene, GAPDH. One-way ANOVA with Dunnet's comparison test was used for statistical analysis.

[3] = Pharmacokinetics: oligonucleotide concentration in the plasma on day 28 after oral gavage in beagle dogs (Example 12); type: in vivo; details: 200 mg oral gavage
Procedure: as §1
Plasma concentrations of Ionis oligonucleotides were also measured on Day 28 at various time points.

[4] = Body and organ weights after oral gavage in CD-1 mice (Example 7); type: in vivo; details: 500 mg/kg oral gavage once daily for 4 weeks, end of study
Procedure: (§2) Groups of 7-8 week old male CD-1 mice were given an oral gavage dose once daily for 4 weeks of 500 mg/kg of Ionis SMAD7 oligonucleotides. Each group contained 8 mice. One group of male CD-1 mice was administered saline by oral gavage daily.
Final body weights were measured at the end of the study. There was no significant difference in the body weight of the mice treated with antisense oligonucleotide compared to the control.
None of the Ionis SMAD7 oligonucleotides caused any changes in organ weights outside the expected range for antisense oligonucleotides.

[5] = Oligonucleotide concentrations in tissues by LC-MS/MS after oral gavage in CD-1 mice (Example 7); type: in vivo; details: 500 mg/kg oral gavage once daily for 4 weeks, 48 hours after last dose
Procedure: as §2
Oligonucleotide concentrations were detected in various tissues by LC-MS/MS analysis. The greatest concentration was found in the kidney, followed by the colon.

[6] = SMAD7 mRNA, Hep3B cells, 10,000 nM antisense oligonucleotide, electroporation, primer probe set RTS5062, relative to untreated control cells
[7] = Hep3B cells, electroporation with 10,000 nM antisense oligonucleotide, SMAD7 mRNA by RT-PCR (RTS5062), relative to untreated control cells

Substance	Body weight [1] [g]	Heart weight [1] [g]	Kidney weight [1] [g]	Liver weight [1] [g]	Mesenteric LN weight [1] [g]	Spleen weight [1] [g]	Thymus weight [1] [g]	ALT [2] [IU/L]	AST [2] [IU/L]	Albumin [2] [g/dL]	BUN [2] [mg/dL]	Bilirubin [2] [mg/dL]	Creatine [2] [mg/dL]	% inhibition of Smad7 mRNA expression (compared to control), Kidney (mouse Smad7 mRNA) [%]	% inhibition of Smad7 mRNA expression (compared to control), Liver (mouse Smad7 mRNA) [%]	Body weight [4] [g]	Heart weight [4] [g]	Kidneys weight [4] [g]	Liver with gallbladder weight [4] [g]	Spleen weight [4] [g]	further results
790615 (CCAATGAGAATGCTTC; 3-10-3 cEt gapmer, further chemistry not given here) [compound 790615]	7372	63.6	44.1	253.7	10.2	32.3	9.9	38	41	3.4	15.7	0.2	0.8	23	18	35	0.17	0.64	1.88	0.11	% inhibition of SMAD7 mRNA expression (murine Smad7 mRNA; 0.25 μM): 7%; % inhibition of SMAD7 mRNA expression (murine Smad7 mRNA; 0.74 μM): 18%; % inhibition of SMAD7 mRNA expression (murine Smad7 mRNA; 2.22 μM): 37%; % inhibition of SMAD7 mRNA expression (murine Smad7 mRNA; 6.67 μM): 47%; % inhibition of SMAD7 mRNA expression (murine Smad7 mRNA; 20.00 μM): 64%; pIC50 (murine Smad7 mRNA): 5.14; % Inhibition (human SMAD7 mRNA; Hep3B cells, electroporation with 10,000 nM antisense oligonucleotide, primer probe set RTS5062, relative to untreated control cells): 38%; % Inhibition (human SMAD7 mRNA; [6]): 40%; Oligonucleotide concentration in the plasma on day 28 ([3]; 2 hr): 16.7 ng/mL; Oligonucleotide concentration in the plasma on day 28 ([3]; 4 hr): 4.8 ng/mL; Oligonucleotide concentration in the plasma on day 28 ([3]; 8 hr): 0.5 ng/mL; Oligonucleotide concentration in the plasma on day 28 ([3]; 24 hr): 0.0 ng/mL; Oligonucleotide concentration, Colon [5]: 2.9 µg/g; Oligonucleotide concentration, Duodenum [5]: 0.9 µg/g; Oligonucleotide concentration, Ileum [5]: 1.6 µg/g; Oligonucleotide concentration, Kidney [5]: 23.6 µg/g; Oligonucleotide concentration, Liver [5]: 2.8 µg/g
798781 (CGTAAGATTCACAGCA; 3-10-3 cEt gapmer, further chemistry not given here) [compound 798781]	6661	53.4	40.0	242.9	7.8	26.4	6.0	32	45	3.0	19.4	0.2	0.9	18	28	35	0.17	0.64	1.86	0.09	% inhibition of SMAD7 mRNA expression (murine Smad7 mRNA; 0.25 μM): 0%; % inhibition of SMAD7 mRNA expression (murine Smad7 mRNA; 0.74 μM): 0%; % inhibition of SMAD7 mRNA expression (murine Smad7 mRNA; 2.22 μM): 20%; % inhibition of SMAD7 mRNA expression (murine Smad7 mRNA; 6.67 μM): 33%; % inhibition of SMAD7 mRNA expression (murine Smad7 mRNA; 20.00 μM): 51%; pIC50 (murine Smad7 mRNA): 4.70; % Inhibition (human SMAD7 mRNA; [7]): 52%; % Inhibition (human SMAD7 mRNA; [6]): 69%; Oligonucleotide concentration in the plasma on day 28 ([3]; 2 hr): 18.7 ng/mL; Oligonucleotide concentration in the plasma on day 28 ([3]; 4 hr): 5.4 ng/mL; Oligonucleotide concentration in the plasma on day 28 ([3]; 8 hr): 3.6 ng/mL; Oligonucleotide concentration in the plasma on day 28 ([3]; 24 hr): 0.4 ng/mL; Oligonucleotide concentration, Colon [5]: 4.4 µg/g; Oligonucleotide concentration, Duodenum [5]: 0.7 µg/g; Oligonucleotide concentration, Ileum [5]: 2.9 µg/g; Oligonucleotide concentration, Kidney [5]: 45.2 µg/g; Oligonucleotide concentration, Liver [5]: 2.9 µg/g
829994 (GGAGGCAGGGCCGCGA; 3-10-3 cEt gapmer, further chemistry not given here) [compound 829994]	7335	57.9	39.1	250.0	9.0	22.8	6.3	62	52	3.1	15.4	0.1	0.7	73	58	35	0.18	0.62	2.02	0.11	% Inhibition (human SMAD7 mRNA; SMAD7 mRNA, Hep3B cells, electroporation with 10,000 nM antisense oligonucleotide, primer probe set RTS5062, relative to untreated control cells): 68%; Oligonucleotide concentration, Colon [5]: 5.7 µg/g; Oligonucleotide concentration, Duodenum [5]: 0.8 µg/g; Oligonucleotide concentration, Ileum [5]: 4.0 µg/g; Oligonucleotide concentration, Kidney [5]: 9.8 µg/g; Oligonucleotide concentration, Liver [5]: 1.3 µg/g
830037 (antisense CTATTGGCTGATCTGG; 3-10-3 cEt gapmer, further chemistry not given here) [compound 830037]	6437	51.9	36.7	204.1	9.0	23.7	6.3	3091	1132	3.7	21.2	0.8	1.0	7	24	35	0.17	0.69	1.93	0.10	% inhibition of SMAD7 mRNA expression (murine Smad7 mRNA; 0.25 μM): 0%; % inhibition of SMAD7 mRNA expression (murine Smad7 mRNA; 0.74 μM): 6%; % inhibition of SMAD7 mRNA expression (murine Smad7 mRNA; 2.22 μM): 1%; % inhibition of SMAD7 mRNA expression (murine Smad7 mRNA; 6.67 μM): 0%; % inhibition of SMAD7 mRNA expression (murine Smad7 mRNA; 20.00 μM): 0%; pIC50 (murine Smad7 mRNA): < 4.70; % Inhibition (human SMAD7 mRNA; [7]): 67%; Oligonucleotide concentration, Colon [5]: 4.8 µg/g; Oligonucleotide concentration, Duodenum [5]: 1.2 µg/g; Oligonucleotide concentration, Ileum [5]: 2.7 µg/g; Oligonucleotide concentration, Kidney [5]: 32.4 µg/g; Oligonucleotide concentration, Liver [5]: 3.9 µg/g
830121 (AGAATCAAGCCCTGGC; 3-10-3 cEt gapmer, further chemistry not given here) [compound 830121]	6091	52.6	40.0	202.0	12.2	27.5	2.8	1454	383	3.0	20.0	2.6	0.9	0	24	34	0.17	0.61	1.92	0.10	% inhibition of SMAD7 mRNA expression (murine Smad7 mRNA; 0.25 μM): 0%; % inhibition of SMAD7 mRNA expression (murine Smad7 mRNA; 0.74 μM): 6%; % inhibition of SMAD7 mRNA expression (murine Smad7 mRNA; 2.22 μM): 12%; % inhibition of SMAD7 mRNA expression (murine Smad7 mRNA; 6.67 μM): 17%; % inhibition of SMAD7 mRNA expression (murine Smad7 mRNA; 20.00 μM): 20%; pIC50 (murine Smad7 mRNA): < 4.70; % Inhibition (human SMAD7 mRNA; [7]): 69%; Oligonucleotide concentration, Colon [5]: 2.7 µg/g; Oligonucleotide concentration, Duodenum [5]: 0.4 µg/g; Oligonucleotide concentration, Ileum [5]: 1.1 µg/g; Oligonucleotide concentration, Kidney [5]: 13.2 µg/g; Oligonucleotide concentration, Liver [5]: 0.9 µg/g
